US10456405B2, “Nitric oxide-releasing prodrug molecule of substituted quinazolines” (ZHEJIANG HUAHAI PHARMACEUTICAL CO., LTD, priority 2015, dated 2019)
Like-named read-outs stand apart in the source and are kept apart here.

Key:
ApoA-I mRNA = test: Regulation of ApoA-I mRNA in HepG2 cells (real-time PCR); assay type: cell-based; parameters: key: Active: When 100 μM of the tested compound allowed ApoA-I mRNA in HepG2 cells to increase more than 15%, then the test compound was known as an ApoA active compound; settings: 100 μM, 48 h, relative to DMSO control
Procedure: Experiment 5. Regulation of the Tested Compounds on ApoA-I mRNA HepG2 cells were cultured for 24 h in a 24-well plate with 400 μl of MEM medium containing 0.5% (v/v) of fetal bovine serum. Then each of the tested compounds (100 μM) and the positive control RVX-208 (100 μM) were added. The cells were cultured for another 48 h. The medium was aspirated out. After washing with 200 μl of PBS, 85 μl of cell lysis solution was added into the cells in each well. The cells were incubated at room temperature for 5 to 10 min to be completely dissolved and detached. The mRNA was extracted from the cells with a kit. The extracted mRNA were used for a real-time fluorescence quantitative PCR detection with RNA Fluorescence (RiboGreen) Quantitation Assay Kit and ApoA-I mRNA Primer-Probe Mixture from the company of Applied Biosystems.
After obtaining the Ct values, the induction fold of each test compound relative to DMSO control was calculated. The induction fold was used to reflect the ability of regulating ApoA-I mRNA for the tested compounds. When 100 μM of the tested compound allowed ApoA-I mRNA in HepG2 cells to increase more than 15%, then the test compound was known as an ApoA active compound.

[1] = rat, in vivo
Procedure: Experimental method: Intravenous injection solutions (the administration concentrations of the tested compounds were 1 mg/kg) and oral gastric perfusates (the administration concentrations of the test compounds were 5 mg/kg) of the test compounds were prepared, and intravenously and orally administered to three SD rats, respectively. The concentrations of the whole blood for H130 at 0.083 h, 0.25 h, 0.5 h, 1 h, 2 h, 4 h, 8 h, and 24 h after administration were determined by LC-MS/MS, respectively. The pharmacokinetic parameters were compared by a drug-time curve. Sample pretreatment: 150 μL of the whole blood to be tested was aspirated accurately. 600 μL of internal standard solution (diluted to 0.5 μg/mL with methanol) was added, sufficiently mixed by a vortex mixer, and centrifuged at 13000 r/min for 20 min at 4° C. 3 μL of the supernatant was taken into a sample vial.
Chromatographic conditions: C18 reversed-phase chromatographic column; gradient elution with mobile phase A: water/acetonitrile (v:v=95:5) with 0.025% of formic acid and 1 mM of ammonium acetate added thereto, and mobile phase B: acetonitrile/water (v:v=95:5) with 0.025% of formic acid and 1 mM of ammonium acetate added thereto.

[2] = 2 h
Procedure: Experimental method: The tested compounds (2 μM) were added into mouse or human plasma, and incubated at 37° C. Samples were taken at 0, 10, 30, 60 and 120 min respectively. The reaction was stopped by adding a stop agent. The mixture was sufficient shaken, and centrifuged at 4000 rpm for 10 min at 4° C. The supernatant was taken. The concentrations of the tested compounds and their metabolite (H130) in the supernatant were measured by LC-MS/MS.

apoE−/− mice = test: apoE−/− mouse atherosclerosis model, high-fat diet 10 weeks; assay type: in vivo
Description: Experimental method: 36 eight-week-old male apoE-/- mice were selected and randomly divided into a blank administration group, an […] administration group, an […] administration group, an […] administration group, an […] administration group, and an […] administration group, 6 mice per group. The mice in each group were fed with high-fat diet for 10 weeks. At the beginning of the high-fat feeding, the mice in each group were administrated. Each tested compound was intragastric administered at the dose of 150 mg/kg twice a day. The blank administration group was given corresponding dose of saline. […] After the blood was taken, the serum, heart, and aorta were isolated. The levels of total cholesterol (TC), high density lipoprotein cholesterol (HDL-C), and low density lipoprotein cholesterol (LDL-C) in the serum of the mice in each group were measured by automatic biochemical analyzer. The ApoA1 expression level was detected with an ApoA1 kit. The content of NO in the serum of the mice was determined with a total NO test kit (Beyotime). The NOS activities of the heart, aorta, and serum were determined with an NOS test kit (Beyotime). The content of eNOS was calculated by the difference between the measured values determined before and after adding eNOS inhibitor L-NAME (Beyotime).

[3] = Release of HNO (headspace gas chromatography of nitrous oxide); settings: PBS pH 7.4, 37° C., argon, 90 min
Procedure: Experiment 2. Experimental study on the tested compounds for releasing HNO HNO rapidly dimerizes and dehydrates to produce nitrous oxide in aqueous solution. In the experiment of detecting HNO, gas chromatographic headspace analysis is generally used to determine the amount of the released nitrous oxide, thereby indirectly detect the level of releasing HNO of the compound.
Experimental procedure: Each of the tested compounds was prepared to 20 mg/mL of mother liquor with DMF. Prior to the start of the experiment, 50 μL of drug mother liquor was placed into a 20 mL headspace sample vial. The tested compound was diluted by adding 5 mL of PBS buffer with pH 7.4. The temperature of the resulting sample was kept at 37° C. under argon gas for 90 min. Then the top gas was extracted for gas chromatographic analysis of nitrous oxide by using Angeli's Salt as a positive compound in the experiment.

db/db mice = test: Serum NO and heart eNOS in db/db mice after oral gavage; assay type: in vivo; settings: blank = 100, oral gavage 150 mg/kg (isosorbide mononitrate 5 mg/kg), 1 h after administration (H101: 2 h)
Description: Experimental method: 25 eight-week-old db/db mice (strain: BKS.Cg−+Leprdb/+leprdb/JclSlac; grade: SPF; gender: male; source: Shanghai SLAC Laboratory Animal Co., Ltd.) were selected. 3 of them were selected as the blank administration control. 2 mice were used as the positive drug control (isosorbide mononitrate). The remaining 20 mice were randomly divided into 5 groups, 4 mice per group, which are H101 administration group, H111 administration group, H116 administration group, H119 administration group, and H130 administration group. The tested compounds of the positive drug control group and each administration group were dissolved in DMSO. Then PEG400 was added. The mixture was shaken and mixed thoroughly. At last, 10% of HP-β-CD was added. The mixture was shaken and mixed thoroughly. The ratio of each solvent was DMSO: PEG400:10% of HP-β-CD=5:67.5:27.5. The administration group was administered by oral gavage at the dose of 150 mg/kg. The positive drug control group was administered at the dose of 5 mg/kg. The mice in the H101 administration group were sacrificed at 2 h after the administration. The mice in the remaining administration groups were sacrificed at 1 h after the administration. The blood was collected respectively into 1.5 mL centrifuge tube, standing at room temperature for more than 30 min, and then centrifuged (3000 rpm, 10 min). The supernatant serum was aspirated, and stored at −80° C. for testing. After the blood was collected, the heart was cut with the thoracic aorta. Three parts of the heart were weighed and placed into cryovials, rapidly frozen in liquid nitrogen, and cryopreserved at −80° C. for testing. The aorta and aortic arch were weighed, rapidly frozen in liquid nitrogen, and cryopreserved at −80° C. for testing. The content of NO in the serum of the […] mice was determined by a total NO test kit (Beyotime). The content of NOS in the heart of the mice was determined with an NOS test kit (Beyotime). The content of eNOS was calculated by the difference between the measured values before and after adding the eNOS inhibitor L-NAME (Beyotime).

[4] = blank administration group = 100, 150 mg/kg twice a day, 10 weeks
[5] = serum, high-fat diet 10 weeks, intragastric 150 mg/kg twice a day

COc1cc(OC)c2c(=O)[nH]c(-c3cc(C)c(OCCOC(=O)CCC(=O)ONS(=O)(=O)c4cccc(S(C)(=O)=O)c4)c(C)c3)nc2c1 [Compound H116]
Upregulation of Apoa-I Mrna Level (ApoA-I mRNA): Active | release of prototype compound H130 after administration [1]: can be rapidly released | AUCRatio (Dosage Calibration) ([1]; iv, 1 mg/kg): 51.6% | AUCRatio (Dosage Calibration) ([1]; po, 5 mg/kg): 45.3% | stability in human plasma [2]: good stability | Aorta eNOS (apoE−/− mice; [4]): 136% | ApoA1 (apoE−/− mice; [4]): 128% | Heart eNOS (apoE−/− mice; [4]): 148% | Serum NO (apoE−/− mice; [4]): 138% | Serum eNOS (apoE−/− mice; [4]): 123% | HDL-C (apoE−/− mice; [5]): 74 ± 11 mg/dL | LDL-C (apoE−/− mice; [5]): 315 ± 31 mg/dL | TC (apoE−/− mice; [5]): 1123 ± 73 mg/dL | Molar Quantities of N2O/Sample [3]: 15.3% | Heart eNOS (db/db mice): 159% | Serum NO (db/db mice): 147%
